Assay results: ChEMBL document CHEMBL1124623, “2,4-Diamino-5-benzylpyrimidines and analogues as antibacterial agents. 12. 1,2-Dihydroquinolylmethyl analogues with high activity and specificity for bacterial dihydrofolate reductase” (J Med Chem, 1989)
Values after ≈ are worked out from the molar mass of the structure shown.

Tests used:
[1] = tested on: Escherichia coli; experiment: Comparative in vitro antibacterial activity of compound with trimethoprim against Escherichia coli CN314; format: functional
[2] = tested on: Enterococcus faecalis; experiment: Comparative in vitro antibacterial activity of compound with trimethoprim against Streptococcus faecalis CN478; format: functional
[3] = tested on: Proteus vulgaris; experiment: Comparative in vitro antibacterial activity of compound with trimethoprim against Proteus vulgaris CN329; format: functional
[4] = tested on: Streptococcus agalactiae; experiment: Comparative in vitro antibacterial activity of compound with trimethoprim against Streptococcus agalactiae CN1143; format: functional
[5] = tested on: Shigella flexneri; experiment: Comparative in vitro antibacterial activity of compound with trimethoprim against Shigella flexneri CN6007; format: functional
[6] = tested on: Staphylococcus aureus; experiment: Comparative in vitro antibacterial activity of compound with trimethoprim against Staphylococcus aureus CN491; format: functional
[7] = tested on: Salmonella typhimurium; experiment: Comparative in vitro antibacterial activity of compound with trimethoprim against Salmonella Typhimurium S 8587; format: functional, Salmonella enterica subsp. enterica serovar Typhimurium; conditions: Salmonella enterica
[8] = Comparative in vitro antibacterial activity of compound with trimethoprim against Salmonella typhi CN512; format: functional, salmonella typhosa
[9] = tested on: Streptococcus pyogenes; experiment: Comparative in vitro antibacterial activity of compound with trimethoprim against Streptococcus pyogenes CN10; format: functional
[10] = biological target: T1, Dihydrofolate reductase (Gallus gallus, UniProt P00378); experiment: Inhibitory activity against Dihydrofolate reductase in chicken; conditions: read-out: I50
T1 sequence (P00378 whole entry): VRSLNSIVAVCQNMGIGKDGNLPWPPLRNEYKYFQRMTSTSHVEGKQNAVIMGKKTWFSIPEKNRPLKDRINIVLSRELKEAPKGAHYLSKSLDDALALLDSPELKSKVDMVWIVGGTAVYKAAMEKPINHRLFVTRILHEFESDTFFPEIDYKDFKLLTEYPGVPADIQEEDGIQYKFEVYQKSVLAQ

[11] = tested on: Vibrio cholerae; experiment: Comparative in vitro antibacterial activity of compound with trimethoprim against Vibrio cholerae ATCC 14035; format: functional
[12] = tested on: Klebsiella pneumoniae; experiment: Comparative in vitro antibacterial activity of compound with trimethoprim against Klebsiella pneumoniae CN3632; format: functional
[13] = biological target: T2, Dihydrofolate reductase (Rattus norvegicus, UniProt Q920D2)
T2 sequence (Q920D2 whole entry): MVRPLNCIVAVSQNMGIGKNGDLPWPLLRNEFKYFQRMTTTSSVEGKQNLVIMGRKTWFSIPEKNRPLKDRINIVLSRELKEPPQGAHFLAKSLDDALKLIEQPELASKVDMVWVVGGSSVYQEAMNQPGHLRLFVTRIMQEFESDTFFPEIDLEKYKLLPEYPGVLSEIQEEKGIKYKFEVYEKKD

[14] = tested on: Klebsiella aerogenes; experiment: Comparative in vitro antibacterial activity of compound with trimethoprim against Enterobacter aerogenes 2200/86; format: functional
[15] = Dissociation constant of compound at 20 degree C; format: physicochemical
[16] = biological target: T3, Dihydrofolate reductase (Escherichia coli, UniProt P0ABQ4)
T3 sequence (P0ABQ4 whole entry): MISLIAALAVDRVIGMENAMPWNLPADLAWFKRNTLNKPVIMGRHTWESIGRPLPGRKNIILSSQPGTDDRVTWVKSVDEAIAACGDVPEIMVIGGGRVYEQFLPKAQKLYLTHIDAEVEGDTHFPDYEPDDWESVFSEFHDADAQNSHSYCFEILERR
Description: Apparent binding affinity of compound in Escherichia coli DHFR

[17] = tested on: Klebsiella aerogenes; experiment: Comparative in vitro antibacterial activity of compound with trimethoprim against Enterobacter aerogenes 2200/86 on different day; format: functional
[18] = tested on: Streptococcus agalactiae; experiment: Comparative in vitro antibacterial activity of compound with trimethoprim against Streptococcus agalactiae CN1143 on different day; format: functional
[19] = tested on: Shigella flexneri; experiment: Comparative in vitro antibacterial activity of compound with trimethoprim against Shigella flexneri CN6007 on different day; format: functional
[20] = tested on: Streptococcus pyogenes; experiment: Comparative in vitro antibacterial activity of compound with trimethoprim against Streptococcus pyogenes CN10 on different day; format: functional
[21] = tested on: Salmonella typhimurium; experiment: Comparative in vitro antibacterial activity of compound with trimethoprim against Salmonella Typhimurium S 8587 on different day; format: functional, Salmonella enterica subsp. enterica serovar Typhimurium; conditions: Salmonella enterica
[22] = Comparative in vitro antibacterial activity of compound with trimethoprim against Salmonella typhi CN512 on different day; format: functional, salmonella typhosa
[23] = tested on: Proteus vulgaris; experiment: Comparative in vitro antibacterial activity of compound with trimethoprim against Proteus vulgaris CN329 on different day; format: functional
[24] = tested on: Klebsiella pneumoniae; experiment: Comparative in vitro antibacterial activity of compound with trimethoprim against Klebsiella pneumoniae CN3632 on different day; format: functional
[25] = tested on: Escherichia coli; experiment: Comparative in vitro antibacterial activity of compound with trimethoprim against Escherichia coli CN314 on different day; format: functional
[26] = biological target: T2, Dihydrofolate reductase; experiment: Inhibitory activity against Dihydrofolate reductase in rat liver; format: functional, tissue-based; conditions: read-out: I50

SMILES | MIC [1] [mg/L] | MIC [2] [mg/L] | MIC [3] [mg/L] | MIC [4] [mg/L] | MIC [5] [mg/L] | MIC [6] [mg/L] | MIC [7] [mg/L] | MIC [8] [mg/L] | MIC [9] [mg/L] | MIC [11] [mg/L] | IC50 [13] [µM] | MIC [14] [mg/L] | other results
COc1cc(Cc2cnc(N)nc2N)cc2c1NC(C)(C)C=C2C | 3 (≈ 9.22 µM) | 0.1 (≈ 0.307 µM) | 3 (≈ 9.22 µM) | 0.3 (≈ 0.922 µM) | 3 (≈ 9.22 µM) | 0.3 (≈ 0.922 µM) | 10 (≈ 30.7 µM) | 10 (≈ 30.7 µM) | 0.1 (≈ 0.307 µM) | 3 (≈ 9.22 µM) | 300 | 3 (≈ 9.22 µM) | IC50 [10]: 1.3 µM; MIC [12]: 10 mg/L (≈ 30.7 µM)
CC1=CC(C)(C)Nc2ccc(Cc3cnc(N)nc3N)cc21 |  |  |  |  |  |  |  |  |  |  | 240 |  | 
CCOc1cc(Cc2cnc(N)nc2N)cc2c1NC(C)(C)C=C2C |  |  |  |  |  |  |  |  |  |  | 250 |  | 
CC1=CC(C)(C)Nc2c1cc(Cc1cnc(N)nc1N)c1cccnc21 | 30 (≈ 86.6 µM) | 0.3 (≈ 0.866 µM) | > 100 | 0.3 (≈ 0.866 µM) | 100 (≈ 289 µM) | 0.1 (≈ 0.289 µM) | 100 (≈ 289 µM) | 30 (≈ 86.6 µM) | 0.03 (≈ 0.0866 µM) | 1 (≈ 2.89 µM) |  | 10 (≈ 28.9 µM) | MIC [12]: > 300 mg/L
CC1=CC(C)(C)Nc2ccccc21 |  |  |  |  |  |  |  |  |  |  |  |  | pKa [15]: 3.69
COc1cc(Cc2cnc(N)nc2N)cc2c1N(C)C(C)(C)C=C2C |  |  |  |  |  |  |  |  |  |  | 340 |  | 
COc1cc(Cc2cnc(N)nc2N)cc2c(C)ccnc12 |  |  |  |  |  |  |  |  |  |  | 20 |  | 
CCc1cc(Cc2cnc(N)nc2N)cc2c1NC(C)(C)C=C2C |  |  |  |  |  |  |  |  |  |  | 174 |  | 
CC1=CC(C)(C)Nc2c(C)cc(Cc3cnc(N)nc3N)cc21 |  |  |  |  |  |  |  |  |  |  | 500 |  | 
CSc1cc(Cc2cnc(N)nc2N)cc2c1NC(C)(C)C=C2C | 10 (≈ 29.3 µM) | ≤ 0.03 | > 100 | 0.3 (≈ 0.879 µM) | 30 (≈ 87.9 µM) | 0.3 (≈ 0.879 µM) | 30 (≈ 87.9 µM) | 30 (≈ 87.9 µM) | 0.1 (≈ 0.293 µM) | 1 (≈ 2.93 µM) | 118 | 10 (≈ 29.3 µM) | Ki [16]: 0.00043 µM; MIC [12]: 100 mg/L (≈ 293 µM)
CC1CC(C)(C)Nc2ccc(Cc3cnc(N)nc3N)cc21 (stereo not drawn) |  |  |  |  |  |  |  |  |  |  | 300 |  | 
CCN1CCC(C)c2ccccc21 (stereo not drawn) |  |  |  |  |  |  |  |  |  |  |  |  | pKa [15]: 4.18
COc1cc(Cc2cnc(N)nc2N)cc2c1NC(C)(CF)C=C2CF (stereo not drawn) | 10 (≈ 27.7 µM) | 0.3 (≈ 0.83 µM) | 10 (≈ 27.7 µM) | 0.3 (≈ 0.83 µM) | 10 (≈ 27.7 µM) | 0.3 (≈ 0.83 µM) | 3 (≈ 8.3 µM) | 10 (≈ 27.7 µM) | 0.1 (≈ 0.277 µM) | 3 (≈ 8.3 µM) | 230 | 30 (≈ 83 µM) | MIC [12]: 10 mg/L (≈ 27.7 µM)
COc1cccc2c1N(C)C(C)(C)C=C2C |  |  |  |  |  |  |  |  |  |  |  |  | pKa [15]: 6.82
CC1=CC(C)(C)Nc2c(Cl)cc(Cc3cnc(N)nc3N)cc21 | 100 (≈ 303 µM) | 300 (≈ 910 µM) | 30 (≈ 91 µM) | 100 (≈ 303 µM) | 100 (≈ 303 µM) | 30 (≈ 91 µM) | 30 (≈ 91 µM) | 30 (≈ 91 µM) | 10 (≈ 30.3 µM) | 100 (≈ 303 µM) | 76 | 300 (≈ 910 µM) | MIC [12]: 30 mg/L (≈ 91 µM)
COc1cc(Cc2cnc(N)nc2N)cc2c1NC(C)(CF)C(F)=C2C (stereo not drawn) | 1 (≈ 2.77 µM) | 0.0001 (≈ 0.000277 µM) | 3 (≈ 8.3 µM) | 0.1 (≈ 0.277 µM) | 3 (≈ 8.3 µM) | 0.001 (≈ 0.00277 µM) | 3 (≈ 8.3 µM) | 1 (≈ 2.77 µM) | 0.03 (≈ 0.083 µM) | 3 (≈ 8.3 µM) | 233 | 1 (≈ 2.77 µM) | MIC [17]: 10 mg/L (≈ 27.7 µM); MIC [18]: 0.03 mg/L (≈ 0.083 µM); Ki [16]: 0.0001 µM; MIC [19]: 0.3 mg/L (≈ 0.83 µM); MIC [20]: 0.0001 mg/L (≈ 0.000277 µM); MIC [21]: 3 mg/L (≈ 8.3 µM); MIC [22]: 30 mg/L (≈ 83 µM); MIC [23]: 3 mg/L (≈ 8.3 µM); MIC [12]: 10 mg/L (≈ 27.7 µM); MIC [24]: 1 mg/L (≈ 2.77 µM); MIC [25]: 10 mg/L (≈ 27.7 µM)
CC1=CC(C)(C)Nc2c1cc(Cc1cnc(N)nc1N)cc2[S+](C)[O-] (stereo not drawn) |  |  |  |  |  |  |  |  |  |  | 56 |  | 
COc1cc(Cc2cnc(N)nc2N)cc2c1N(C)CCC2C (stereo not drawn) |  |  |  |  |  |  |  |  |  |  |  |  | IC50 [26]: 250 µM; pKa [15]: 6.51
COc1cc(Cc2cnc(N)nc2N)cc2c1N(CCOC(C)=O)C(C)(C)C=C2C |  |  |  |  |  |  |  |  |  |  | 164 |  | 
COc1cc(Cc2cnc(N)nc2N)cc2c1NC(C)(C)CC2C (stereo not drawn) | 30 (≈ 91.6 µM) | 1 (≈ 3.05 µM) | > 100 | 1 (≈ 3.05 µM) | 30 (≈ 91.6 µM) | 3 (≈ 9.16 µM) | 30 (≈ 91.6 µM) | 100 (≈ 305 µM) | 1 (≈ 3.05 µM) | 3 (≈ 9.16 µM) | 430 | 10 (≈ 30.5 µM) | 
CN1CCCc2ccccc21 |  |  |  |  |  |  |  |  |  |  |  |  | pKa [15]: 4.1
COc1cccc2c1NC(C)(C)C=C2C |  |  |  |  |  |  |  |  |  |  |  |  | pKa [15]: 3.36
COc1cc(Cc2cnc(N)nc2N)cc2c1NCCC2C (stereo not drawn) |  |  |  |  |  |  |  |  |  |  | 33 |  | 
